Data taken from PMC5655689, “Therapeutic potential of the phosphino Cu(I) complex (HydroCuP) in the treatment of solid tumors” (Scientific Reports, 2017).
“And” between values parts separate entries of the source, which are not always exact repeats. Equal entries are not always repeated.

Assays:
[1] = tested on: LoVo colorectal oxaliplatin-resistant xenograft; experiment: In vivo activity toward LoVo-OXP (OXP-resistant) tumor xenograft in BALB/c nu/nu mice; conditions: 30 mg/kg daily i.p. from day 14, day 30
Experimental: (§1) To this aim, we developed the OXP-sensitive and OXP-resistant LoVo xenografts in BALB/c nu/nu mice. […] OXP-sensitive or OXP-resistant LoVo cells (1 × 10^7) were injected in the flank of mice. Once tumor was established (tumor volumes of about 0.4 cm^3, around 14 days after tumor inoculation), mice were randomly divided into six groups (6 animals per group, 8 controls). The HydroCuP-treated groups (6 mice each group) received daily 30 mg/kg by i.p. injection and the OXP-treated group was given 2 mg/kg by i.p. injection. At day 30, animals were sacrificed, and the inhibition of tumor growth was determined (Fig. 4, panel A). Measurements of body weights were recorded from day 14 every 2 days until the experimental endpoint (Fig. 4, panel B).
(§2) (A) LoVo and LoVo-OXP tumor xenografts in 6-week-old BALB/c nu/nu mice by injecting 1 × 10^7 tumor cells subcutaneously on the left dorsal flank. After 24 h from tumor implantation, mice randomly divided into six groups (6 animals per group). Chemotherapy delayed until day 14 (tumor volumes of about 0.4 cm^3). From day 14, HydroCuP dosed daily at 30 mg/kg i.p., OXP dosed daily at 2 mg/kg i.p. At day 30, animals sacrificed, and the inhibition of tumor growth determined by comparing the volume of the control group and the treatment group expressed as percentage referred to the control animals. Error bars indicate the S.D. *p < 0.05, **p < 0.01, with respect to control. […] Body weight was measured every two days and was taken as a parameter of systemic toxicity. The error bars indicate the S.D. **P < 0.01; *P < 0.05.
(§3) LoVo and LoVo-OXP tumor xenografts were established in 6-week-old BALB/c nu/nu mice by injecting 1 × 10^7 tumor cells subcutaneously (100 μL in serum free medium) on the left dorsal flank. After 24 h from tumor implantation, mice were randomly divided into six groups (6 animals per group, 8 controls). Chemotherapy was delayed until the tumor was about 0.4 cm^3 (day 14). From day 14, HydroCuP was dosed daily at 30 mg/kg i.p. whereas OXP was dosed daily at 2 mg/kg i.p. Measurements of body weights and tumor volumes were recorded from day 14 every 2 days until the experimental endpoint. The long axis (L) and the short axis (S) were measured with callipers, and the tumor volume (V) was calculated using the following equation: V = SxSxL/2. At day 30, animals were sacrificed, and the inhibition of tumor growth was determined by comparing the volume of the control group and the treatment group expressed as percentage referred to the control animals.

[2] = tested on: LoVo colorectal oxaliplatin-sensitive xenograft; experiment: In vivo activity toward LoVo (OXP-sensitive) tumor xenograft in BALB/c nu/nu mice; conditions: 30 mg/kg daily i.p. from day 14, day 30
Experimental: as §1, §2, §3

[3] = tested on: Lewis Lung Carcinoma (LLC); experiment: In vivo antitumor activity towards Lewis Lung Carcinoma (LLC) implanted i.m. in C57BL mice; set-up: species or system mouse; conditions: for Average tumor weight (mean ± S.D., g) / Inhibition of tumor growth (%): day 15
Experimental: The schedule of HydroCuP administration in vivo was initially determined by assessing the total dose that could be injected without undue toxicity for different schedules in nontumor-bearing C57BL mice (data not shown). […] Three schedules of i.p. HydroCuP were administered: early treatment (days 3, 5, 7 and 9 after tumor inoculum), intermediate treatment (days 7–14) and late treatment with split-doses (days 9–11 with a loading dose and days 12–14 with a lower maintenance dose). […] Cisplatin treatment schedule was selected according to standard protocols designed to optimize its efficacy and minimize the occurrence of adverse events. For the early treatment, control mice received the vehicle (0.9% NaCl). HydroCuP was dosed at 25, 35 and 50 mg/kg i.p. on days 3, 5, 7, 9, 11 and 13 after tumor implantation. Cisplatin was dosed at 1.5 mg/kg i.p. on days 3, 5, 7, 9, 11 and 13 after tumor implantation.
The mice were purchased from Charles River, Italy, housed in steel cages under controlled environmental conditions (constant temperature, humidity, and 12 h dark/light cycle), and alimented with commercial standard feed and tap water ad libitum. The LLC cell line was purchased from ECACC, United Kingdom. The LLC cell line was maintained in DMEM (Euroclone, Pero, Italy) supplemented with 10% heat-inactivated foetal bovine serum (Euroclone, Pero, Italy), 10 mM L-glutamine, 100 U/mL penicillin, and 100 µg/mL streptomycin in a 5% CO2 air incubator at 37 °C. The LLC was implanted intramuscularly (i.m.) as a 2 × 10^6 cell inoculum into the right hind leg of 8-week old male and female C57BL mice (24 ± 3 g body weight). The antitumor activity of HydroCuP in LLC tumor model has been investigated by means of different schedules (early treatment, intermediate treatment and late treatment) and compared with that promoted by the reference metallodrug, CDDP. In the early-stage treatment, animals were treated at day 3, 5, 7, 9, 11 and 13 after the tumor cell inoculum with an i.p. injection of HydroCuP (25, 35 and 50 mg/kg), CDDP (1.5 mg/kg) or the vehicle solution (0.9% NaCl).
In the intermediate treatment, animals were treated after 7 days from tumor implantation (visible tumor) with daily i.p. doses of HydroCuP (30 and 50 mg/kg), CDDP (1.5 mg/kg) or the vehicle solution (0.9% NaCl). In the late treatment, animals were treated after 9 days from tumor implantation (palpable tumor) with i.p. doses of HydroCuP (50 mg/kg) from day 9 to day 11 and with i.p. doses of HydroCuP (30 mg/kg) from day 12 to day 14, or with daily doses of CDDP (1.5 mg/kg) or with the vehicle solution (0.9% NaCl). At day 15, animals were sacrificed, the legs were amputated at the proximal end of the femur, and the inhibition of tumor growth was determined according to the difference in weight of the tumor-bearing leg and the healthy leg of the animals expressed as a percentage referring to the control animals. Body weight was measured every 2 days and was taken as a parameter for systemic toxicity.

[4] = Early treatment, 35 mg/kg i.p. days 3, 5, 7, 9, 11, 13
[5] = Early treatment, 50 mg/kg i.p. days 3, 5, 7, 9, 11, 13

## F[P-](F)(F)(F)(F)F.OC[P+](CO)(CO)[Cu-3]([P+](CO)(CO)CO)([P+](CO)(CO)CO)[P+](CO)(CO)CO [HydroCuP, [Cu(thp)4][PF6]]
[1]
  Inhibition of tumor growth (decrease in final tumor volume): about 65%
[2]
  Inhibition of tumor growth (decrease in final tumor volume): about 65%
[3]; Early treatment, 25 mg/kg i.p. days 3, 5, 7, 9, 11, 13
  Average tumor weight (mean ± S.D., g): 0.473 ± 0.12 g
[3]; Early treatment, 25 mg/kg i.p. days 3, 5, 7, 9, 11, 13, 25 mg/kg
  Inhibition of tumor growth (%): 26% and 25.86%
[3]; [4]
  Average tumor weight (mean ± S.D., g): 0.273 ± 0.04 g
  Inhibition of tumor growth (%): 57.21%
[3]; [5]
  Average tumor weight (mean ± S.D., g): 0.113 ± 0.04 g
  Inhibition of tumor growth (%): 82.28%
[3]; Early treatment, LLC-bearing C57BL mice, 15 days
  Body weight changes: did not induce significant body weight loss
[3]; Intermediate treatment, 30 mg/kg daily i.p. day 7-14
  Average tumor weight (mean ± S.D., g): 0.088 ± 0.03 g
[3]; Intermediate treatment, 30 mg/kg daily i.p. day 7-14, 30 mg/kg
  Inhibition of tumor growth (%): 82% and 82.37%
[3]; Intermediate treatment, 50 mg/kg daily i.p. day 7-14
  Average tumor weight (mean ± S.D., g): 0.071 ± 0.02 g
[3]; Intermediate treatment, 50 mg/kg daily i.p. day 7-14, 50 mg/kg
  Inhibition of tumor growth (%): 85% and 85.85%
[3]; Intermediate treatment, LLC-bearing C57BL mice
  Body weight loss: < 10%
[3]; Late treatment, 50 mg/kg (days 9-11) then 30 mg/kg (days 12-14) daily i.p.
  Average tumor weight (mean ± S.D., g): 0.024 ± 0.03 g
[3]; Late treatment, LLC-bearing C57BL mice
  Body weight changes / adverse effects: did not induce any adverse effects including significant body weight loss
